From patent US7098039B1, “Analysis of a sample to determine its characteristic cycle time” (The Victoria University of Manchester, priority 1998, dated 2006)
Like-named read-outs stand apart in the source and are kept apart here.

System: peptide sequence VCDWWGWGIC (mimic of the binding of drugs by the drug efflux protein P-glycoprotein)
Assay: Quenching of the natural tryptophan fluorescence of peptide […] on drug binding (FIG. 7h titration)
Conditions: for relative intensity of the peak at 359.25 nm, indicating the degree of quenching: peptide 49.1 μM, 0.1 M Tris pH 7.5
Source text: The system illustrated in FIG. 7 may be a drug binding to a protein or peptide comprising fluorescent amino acids at the site of binding.
The number in brackets, following each titration, is the relative intensity of the peak at 359.25 nm, indicating the degree of quenching.

[1] = peptide VCDWWGWGIC, linear sequence or cyclised, result in words

CC[C@]1(O)C[C@@H]2CN(CCc3c([nH]c4ccccc34)[C@@](C(=O)OC)(c3cc4c(cc3OC)N(C)[C@H]3[C@@](O)(C(=O)OC)[C@H](OC(C)=O)[C@]5(CC)C=CCN6CC[C@]43[C@@H]65)C2)C1 [Vinblastine]
natural tryptophan fluorescence of the peptide quenched by the drug [1]: quenched

CC[C@H]1OC(=O)[C@H](C)[C@@H](O[C@H]2C[C@@](C)(OC)[C@@H](O)[C@H](C)O2)[C@H](C)[C@@H](O[C@@H]2O[C@H](C)C[C@H](N(C)C)[C@H]2O)[C@](C)(O)C[C@@H](C)C(=O)[C@H](C)[C@@H](O)[C@]1(C)O [Erythromycin]
natural tryptophan fluorescence of the peptide quenched by the drug [1]: quenched

C[C@H]1O[C@@H](O[C@H]2[C@@H](O)C[C@H](O[C@H]3[C@@H](O)C[C@H](O[C@H]4CC[C@@]5(C)[C@H](CC[C@@H]6[C@@H]5C[C@@H](O)[C@]5(C)[C@@H](C7=CC(=O)OC7)CC[C@]65O)C4)O[C@@H]3C)O[C@@H]2C)C[C@H](O)[C@@H]1O [Digoxin]
natural tryptophan fluorescence of the peptide quenched by the drug [1]: quenched

COC(=O)[C@H]1[C@H]2C[C@@H]3c4[nH]c5cc(OC)ccc5c4CCN3C[C@H]2C[C@@H](OC(=O)c2cc(OC)c(OC)c(OC)c2)[C@@H]1OC [Reserpine]
natural tryptophan fluorescence of the peptide quenched by the drug [1]: quenched

CO[C@@H]1[C@@H](OC(N)=O)[C@@H](O)[C@H](Oc2ccc3c(O)c(NC(=O)c4ccc(O)c(CC=C(C)C)c4)c(=O)oc3c2C)OC1(C)C [Novobiocin]
natural tryptophan fluorescence of the peptide quenched by the drug [1]: quenched

O=c1c(-c2ccc(O)cc2)coc2cc(O)cc(O)c12 [Genistein]
natural tryptophan fluorescence of the peptide quenched by the drug (peptide […], linear sequence or cyclised, result in words): quenched

CN1C(=O)CN=C(c2ccccc2)c2cc(Cl)ccc21 [Diazepam]
natural tryptophan fluorescence of the peptide quenched by the drug: quenched

N[C@@H](Cc1ccc(N(CCCl)CCCl)cc1)C(=O)O [Melphalan]
natural tryptophan fluorescence of the peptide quenched by the drug [1]: quenched

Cyclosporin A
natural tryptophan fluorescence of the peptide quenched by the drug [1]: quenched

COc1cccc2c1C(=O)c1c(O)c3c(c(O)c1C2=O)C[C@@](O)(C(=O)CO)C[C@@H]3O[C@H]1C[C@H](N)[C@H](O)[C@H](C)O1 [Doxorubicin]
natural tryptophan fluorescence of the peptide quenched by the drug [1]: quenched | relative intensity of the peak at 359.25 nm, indicating the degree of quenching (peptide:doxorubicin 1:0.1, 2.9 ml, without doxorubicin normalised at 999.99): 917.99 | relative intensity of the peak at 359.25 nm, indicating the degree of quenching (peptide:doxorubicin 1:0.2, without doxorubicin 999.99): 835.53 | relative intensity of the peak at 359.25 nm, indicating the degree of quenching (peptide:doxorubicin 1:0.3, without doxorubicin 999.99): 769.34 | relative intensity of the peak at 359.25 nm, indicating the degree of quenching (peptide:doxorubicin 1:0.4, without doxorubicin 999.99): 704.25 | relative intensity of the peak at 359.25 nm, indicating the degree of quenching (peptide:doxorubicin 1:0.5, without doxorubicin 999.99): 633.91 | relative intensity of the peak at 359.25 nm, indicating the degree of quenching (peptide:doxorubicin 1:0.6, without doxorubicin 999.99): 594.31 | relative intensity of the peak at 359.25 nm, indicating the degree of quenching (peptide:doxorubicin 1:0.7, without doxorubicin 999.99): 547.73 | relative intensity of the peak at 359.25 nm, indicating the degree of quenching (peptide:doxorubicin 1:0.8, without doxorubicin 999.99): 498.54 | relative intensity of the peak at 359.25 nm, indicating the degree of quenching (peptide:doxorubicin 1:0.9, without doxorubicin 999.99): 457.70 | relative intensity of the peak at 359.25 nm, indicating the degree of quenching (peptide:doxorubicin 1:1, without doxorubicin 999.99): 415.96 | relative intensity of the peak at 359.25 nm, indicating the degree of quenching (peptide:doxorubicin 1:1.1, without doxorubicin 999.99): 390.24
